Patent US11572590B2, “Methods for evaluating tumor cell spheroids using 3D microfluidic cell culture device” (Dana-Farber Cancer Institute, Inc., priority 2017, dated 2023)
Where two headings read alike, the source gives them in different places.

What was measured:
Test in all cases: SelectScreen Kinase Profiling, single point inhibition and IC50 for off-target kinases
Assay type in all cases: biochemical
off-target kinases [1] = target: off-target kinases (Homo sapiens, UniProt P19784); conditions: CSNK2A2 (CK2 alpha 2), ZLYTE, ATP Km app
off-target kinases (Homo sapiens, UniProt P19784), sequence (P19784 whole entry): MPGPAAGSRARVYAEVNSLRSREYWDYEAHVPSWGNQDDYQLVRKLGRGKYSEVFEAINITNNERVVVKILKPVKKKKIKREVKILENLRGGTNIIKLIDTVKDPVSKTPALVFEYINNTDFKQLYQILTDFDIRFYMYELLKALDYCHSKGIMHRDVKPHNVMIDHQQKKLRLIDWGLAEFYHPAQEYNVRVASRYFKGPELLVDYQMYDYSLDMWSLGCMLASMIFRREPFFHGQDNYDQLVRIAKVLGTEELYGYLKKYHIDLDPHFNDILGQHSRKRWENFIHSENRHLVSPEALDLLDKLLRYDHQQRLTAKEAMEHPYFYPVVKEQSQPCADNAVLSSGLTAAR

off-target kinases [2] = target: T1, off-target kinases (Homo sapiens, UniProt P42681); conditions: TXK, ZLYTE, ATP Km app
T1 sequence (P42681 1-527): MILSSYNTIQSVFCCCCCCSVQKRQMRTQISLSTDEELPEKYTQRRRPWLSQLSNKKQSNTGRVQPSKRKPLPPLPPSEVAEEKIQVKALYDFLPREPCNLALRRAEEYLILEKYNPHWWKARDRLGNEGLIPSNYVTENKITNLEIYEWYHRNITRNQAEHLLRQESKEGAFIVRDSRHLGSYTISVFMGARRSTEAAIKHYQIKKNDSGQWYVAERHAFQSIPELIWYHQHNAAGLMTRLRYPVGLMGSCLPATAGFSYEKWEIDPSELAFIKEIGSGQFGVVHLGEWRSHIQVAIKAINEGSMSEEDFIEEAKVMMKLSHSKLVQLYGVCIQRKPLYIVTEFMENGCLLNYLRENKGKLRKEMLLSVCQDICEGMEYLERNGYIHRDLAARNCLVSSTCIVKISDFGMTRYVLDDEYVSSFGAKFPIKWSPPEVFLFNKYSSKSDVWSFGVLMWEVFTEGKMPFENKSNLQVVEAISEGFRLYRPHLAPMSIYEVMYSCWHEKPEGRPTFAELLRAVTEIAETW

off-target kinases [3] = target: off-target kinases (Homo sapiens, UniProt Q13554); conditions: CAMK2B (CaMKII beta), ZLYTE, ATP Km app
off-target kinases (Homo sapiens, UniProt Q13554), sequence (Q13554 whole entry): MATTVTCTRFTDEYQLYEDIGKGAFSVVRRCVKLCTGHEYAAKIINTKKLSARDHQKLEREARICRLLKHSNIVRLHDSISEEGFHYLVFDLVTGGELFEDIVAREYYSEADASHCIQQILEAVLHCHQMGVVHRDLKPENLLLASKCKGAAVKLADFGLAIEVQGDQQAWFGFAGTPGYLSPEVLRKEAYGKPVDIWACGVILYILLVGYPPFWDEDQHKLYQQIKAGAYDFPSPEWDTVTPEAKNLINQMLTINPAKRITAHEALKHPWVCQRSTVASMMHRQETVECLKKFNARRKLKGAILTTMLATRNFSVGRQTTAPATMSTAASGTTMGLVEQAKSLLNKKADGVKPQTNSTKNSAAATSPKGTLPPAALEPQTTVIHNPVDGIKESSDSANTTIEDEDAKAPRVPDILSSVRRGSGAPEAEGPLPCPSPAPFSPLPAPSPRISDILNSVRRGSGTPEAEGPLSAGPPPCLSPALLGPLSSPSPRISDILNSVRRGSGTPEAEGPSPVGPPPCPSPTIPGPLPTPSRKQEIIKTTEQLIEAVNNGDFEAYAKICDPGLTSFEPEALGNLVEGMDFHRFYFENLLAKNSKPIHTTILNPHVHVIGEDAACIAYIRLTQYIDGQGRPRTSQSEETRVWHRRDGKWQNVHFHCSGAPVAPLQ

off-target kinases [4] = target: T2, off-target kinases (Homo sapiens, UniProt Q8TF76); conditions: GSG2 (Haspin); Cmpd1 1000 μM; ATP Km app; Adapta
T2 sequence (Q8TF76 1-798): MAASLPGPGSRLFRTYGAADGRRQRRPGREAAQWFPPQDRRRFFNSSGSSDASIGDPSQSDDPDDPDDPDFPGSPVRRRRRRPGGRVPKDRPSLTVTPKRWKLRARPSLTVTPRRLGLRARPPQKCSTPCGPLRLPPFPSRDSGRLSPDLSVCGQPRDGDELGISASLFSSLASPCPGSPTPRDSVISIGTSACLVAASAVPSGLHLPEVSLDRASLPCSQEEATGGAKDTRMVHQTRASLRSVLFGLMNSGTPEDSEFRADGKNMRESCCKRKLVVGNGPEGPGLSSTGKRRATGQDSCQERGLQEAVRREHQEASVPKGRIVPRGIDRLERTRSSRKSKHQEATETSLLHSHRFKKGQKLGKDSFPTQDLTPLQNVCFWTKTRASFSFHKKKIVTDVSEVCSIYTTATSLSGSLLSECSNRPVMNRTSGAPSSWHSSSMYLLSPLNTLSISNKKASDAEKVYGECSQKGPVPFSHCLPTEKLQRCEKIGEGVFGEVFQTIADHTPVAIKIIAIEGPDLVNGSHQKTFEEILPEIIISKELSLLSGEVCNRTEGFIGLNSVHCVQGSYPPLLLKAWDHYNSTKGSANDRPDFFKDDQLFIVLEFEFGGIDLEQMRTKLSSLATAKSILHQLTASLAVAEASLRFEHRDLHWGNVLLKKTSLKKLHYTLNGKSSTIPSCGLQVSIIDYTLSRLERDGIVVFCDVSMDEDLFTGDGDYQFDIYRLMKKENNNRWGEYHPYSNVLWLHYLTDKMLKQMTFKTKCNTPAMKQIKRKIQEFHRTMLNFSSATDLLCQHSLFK

N#Cc1cc(-c2ncnc(Nc3ccc(N4CCN(C5COC5)CC4)cc3)n2)ccc1OC1CCOCC1 [Compound 1, 5-(4-((4-(4-(oxetan-3-yl)piperazin-1-yl)phenyl)amino)-1,3,5-triazin-2-yl)-2-((tetrahydro-2H-pyran-4-yl)oxy)benzonitrile]
inhibition (off-target kinases [1]; read-out: % Inhibition 1): 32%
inhibition (off-target kinases [1]; read-out: % Inhibition 2): 30%
inhibition (off-target kinases [1]; read-out: % Inhibition Avg): 31%
inhibition (off-target kinases [2]; read-out: % Inhibition 1): 27%
inhibition (off-target kinases [2]; read-out: % Inhibition 2): 36%
inhibition (off-target kinases [2]; read-out: % Inhibition Avg): 31%
inhibition (off-target kinases [3]; read-out: % Inhibition 1): 11%
inhibition (off-target kinases [3]; read-out: % Inhibition 2): 8%
inhibition (off-target kinases [3]; read-out: % Inhibition Avg): 10%
% Inhibition 1 (off-target kinases [4]): 7%
% Inhibition 2 (off-target kinases [4]): −20%
% Inhibition Avg (off-target kinases [4]): −6%
